Laboratory results taken from ChEMBL document CHEMBL3045477, “Dysfunctionality of the xylem in Olea europaea L. Plants associated with the infection process by Verticillium dahliae Kleb. Role of phenolic compounds in plant defense mechanism” (J Agric Food Chem, 2007).
Converted amounts (≈) assume the structure as drawn.

Tested on: Verticillium dahliae
Assay: Antifungal activity against Verticillium dahliae assessed as inhibition of mycelial radial growth measured after 350 hr
Format: functional, organism-based

Compound | IC50
C[C@@H]1O[C@@H](OC[C@H]2O[C@@H](Oc3c(-c4ccc(O)c(O)c4)oc4cc(O)cc(O)c4c3=O)[C@H](O)[C@@H](O)[C@@H]2O)[C@H](O)[C@H](O)[C@H]1O [RUTIN] | 80 µg/mL (≈ 131 µM)
O=c1cc(-c2ccc(O)c(O)c2)oc2cc(O)cc(O)c12 [LUTEOLIN] | 7 µg/mL (≈ 24.5 µM)
O=c1cc(-c2ccc(O)c(O)c2)oc2cc(O[C@@H]3O[C@H](CO)[C@@H](O)[C@H](O)[C@H]3O)cc(O)c12 [GALUTEOLIN] | 260 µg/mL (≈ 580 µM)
O=C(O)/C=C/c1ccc(O)cc1 [COUMARIC ACID] | 1470 µg/mL (≈ 8950 µM)
C/C=C1/[C@H](O[C@@H]2O[C@H](CO)[C@@H](O)[C@H](O)[C@H]2O)OC=C(C(=O)OC)[C@H]1CC(=O)OCCc1ccc(O)c(O)c1 [OLEUROPEIN] | 170 µg/mL (≈ 315 µM)
OCCc1ccc(O)cc1 [TYROSOL] | 660 µg/mL (≈ 4780 µM)
O=c1c(O)c(-c2ccc(O)c(O)c2)oc2cc(O)cc(O)c12 [QUERCETIN] | 6 µg/mL (≈ 19.9 µM)
Oc1cc(O)c2c(c1)OC(c1ccc(O)c(O)c1)C(O)C2 (stereo not drawn) [CATECHIN] | 2100 µg/mL (≈ 7230 µM)
